From patent publication EP4707284A1, “HETEROCYCLIC COMPOUND AND USE THEREOF” (Otsuka Pharmaceutical Co., Ltd., priority 2023, dated 2024) come the findings set out here.

Each structure is given as a SMILES string.

The format of the data set is physicochemical. Particulars: Tris-hydrochloric acid buffer (pH 7.5) 50 mmol/L, magnesium chloride 5 mmol/L, evaluation compound 1 µmol/L, 37°C, 60 minutes, average of duplicate. Summed up:
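Conversion of compounds to brexpiprazole measured in buffer at 37°C, in duplicate: compound added after 3 min pre-incubation of reaction solution, and reaction stopped at 0 or 60 min with acetonitrile/isopropanol (4:1) containing internal standards. Quantified against calibration samples at 0.01, 0.1 and 1 µmol/L.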

As to `CC(C)(C)C(=O)OCCCCCCOP(=O)([O-])OC[N+]1(CCCCOc2ccc3ccc(=O)[nH]c3c2)CCN(c2cccc3sccc23)CC1` [EX 102], the “Concentration of brexpiprazole formed” value amounted to 0 nM and the “Concentration of evaluation compound decreased” value came out at 70 nM.

As to `CCOC(=O)[C@@H](C)OP(=O)([O-])OC[N+]1(CCCCOc2ccc3ccc(=O)[nH]c3c2)CCN(c2cccc3sccc23)CC1` [EX 103], the “Concentration of brexpiprazole formed” value worked out at 0 nM and the “Concentration of evaluation compound decreased” value was -10 nM.

With `CCOC(=O)[C@H](C)OP(=O)([O-])OC[N+]1(CCCCOc2ccc3ccc(=O)[nH]c3c2)CCN(c2cccc3sccc23)CC1` [EX 104], the “Concentration of brexpiprazole formed” value was found to be 0 nM and the “Concentration of evaluation compound decreased” value amounted to 200 nM.

For the compound `CC(C)OC(=O)[C@@H](C)OP(=O)([O-])OC[N+]1(CCCCOc2ccc3ccc(=O)[nH]c3c2)CCN(c2cccc3sccc23)CC1` [EX 105], the “Concentration of brexpiprazole formed” value was determined as 0 nM and the “Concentration of evaluation compound decreased” value is 50 nM.

For `C[C@@H](OP(=O)([O-])OC[N+]1(CCCCOc2ccc3ccc(=O)[nH]c3c2)CCN(c2cccc3sccc23)CC1)C(=O)OC(C)(C)C` [EX 106], the “Concentration of brexpiprazole formed” value was found to be 0 nM and the “Concentration of evaluation compound decreased” value was found to be 70 nM.

In the case of `CC(C)COC(=O)[C@@H](C)OP(=O)([O-])OC[N+]1(CCCCOc2ccc3ccc(=O)[nH]c3c2)CCN(c2cccc3sccc23)CC1` [EX 107], the “Concentration of brexpiprazole formed” value turned out to be 0 nM and the “Concentration of evaluation compound decreased” value amounted to 70 nM.

On to `CCC(CC)COC(=O)[C@@H](C)OP(=O)([O-])OC[N+]1(CCCCOc2ccc3ccc(=O)[nH]c3c2)CCN(c2cccc3sccc23)CC1` [EX 108], for which the “Concentration of brexpiprazole formed” value worked out at 0 nM and the “Concentration of evaluation compound decreased” value was 80 nM.

Regarding `CCOCCOC(=O)[C@@H](C)OP(=O)([O-])OC[N+]1(CCCCOc2ccc3ccc(=O)[nH]c3c2)CCN(c2cccc3sccc23)CC1` [EX 109], the “Concentration of brexpiprazole formed” value stood at 0 nM and the “Concentration of evaluation compound decreased” value is -20 nM.

Regarding `CCOC(=O)C(CC)OP(=O)([O-])OC[N+]1(CCCCOc2ccc3ccc(=O)[nH]c3c2)CCN(c2cccc3sccc23)CC1` (stereo not shown) [EX 110], the “Concentration of brexpiprazole formed” value was found to be 0 nM and the “Concentration of evaluation compound decreased” value turned out to be 70 nM.

Consider `CCOC(=O)C[C@@H](OP(=O)([O-])OC[N+]1(CCCCOc2ccc3ccc(=O)[nH]c3c2)CCN(c2cccc3sccc23)CC1)C(=O)OCC` [EX 111], for which the “Concentration of brexpiprazole formed” value was found to be 0 nM and the “Concentration of evaluation compound decreased” value worked out at 20 nM.

Regarding `O=c1ccc2ccc(OCCCC[N+]3(COP(=O)([O-])OCC(F)F)CCN(c4cccc5sccc45)CC3)cc2[nH]1` [EX 115], the “Concentration of brexpiprazole formed” value is 0 nM and the “Concentration of evaluation compound decreased” value was 50 nM.

For `C[C@@H]1CN(CCOP(=O)([O-])OC[N+]2(CCCCOc3ccc4ccc(=O)[nH]c4c3)CCN(c3cccc4sccc34)CC2)C[C@H](C)O1` [EX 116], the “Concentration of brexpiprazole formed” value worked out at 0 nM and the “Concentration of evaluation compound decreased” value is 90 nM.

With `CN1CCN(CCOP(=O)([O-])OC[N+]2(CCCCOc3ccc4ccc(=O)[nH]c4c3)CCN(c3cccc4sccc34)CC2)CC1` [EX 117], the “Concentration of brexpiprazole formed” value stood at 0 nM and the “Concentration of evaluation compound decreased” value was determined as 50 nM.

For `O=c1ccc2ccc(OCCCC[N+]3(COP(=O)([O-])OCCN4CCCCC4)CCN(c4cccc5sccc45)CC3)cc2[nH]1` [EX 118], the “Concentration of brexpiprazole formed” value was determined as 0 nM and the “Concentration of evaluation compound decreased” value was found to be 60 nM.

For the compound `O=c1ccc2ccc(OCCCC[N+]3(COP(=O)([O-])OCCN4CCC(F)(F)CC4)CCN(c4cccc5sccc45)CC3)cc2[nH]1` [EX 119], the “Concentration of brexpiprazole formed” value came to 0 nM and the “Concentration of evaluation compound decreased” value was 140 nM.

In the case of `CCC(=O)OCOP(=O)([O-])OC[N+]1(CCCCOc2ccc3ccc(=O)[nH]c3c2)CCN(c2cccc3sccc23)CC1` [EX 120], the “Concentration of brexpiprazole formed” value was found to be 0 nM and the “Concentration of evaluation compound decreased” value amounted to 50 nM.

With `CCCC(=O)OCOP(=O)([O-])OC[N+]1(CCCCOc2ccc3ccc(=O)[nH]c3c2)CCN(c2cccc3sccc23)CC1` [EX 121], the “Concentration of brexpiprazole formed” value amounted to 0 nM and the “Concentration of evaluation compound decreased” value was determined as 90 nM.

For the compound `CCC(C)(C)C(=O)OCOP(=O)([O-])OC[N+]1(CCCCOc2ccc3ccc(=O)[nH]c3c2)CCN(c2cccc3sccc23)CC1` [EX 122], the “Concentration of brexpiprazole formed” value turned out to be 0 nM and the “Concentration of evaluation compound decreased” value is 50 nM.

Take `CCCC(C)(C)C(=O)OCOP(=O)([O-])OC[N+]1(CCCCOc2ccc3ccc(=O)[nH]c3c2)CCN(c2cccc3sccc23)CC1` [EX 123]: the “Concentration of brexpiprazole formed” value came out at 0 nM and the “Concentration of evaluation compound decreased” value is -110 nM.

Turning to `O=C(OCOP(=O)([O-])OC[N+]1(CCCCOc2ccc3ccc(=O)[nH]c3c2)CCN(c2cccc3sccc23)CC1)C12CC3CC(CC(C3)C1)C2` [EX 124], the “Concentration of brexpiprazole formed” value was 0 nM and the “Concentration of evaluation compound decreased” value turned out to be 100 nM.

Turning to `O=C(CCO)OCOP(=O)([O-])OC[N+]1(CCCCOc2ccc3ccc(=O)[nH]c3c2)CCN(c2cccc3sccc23)CC1` [EX 125], the “Concentration of brexpiprazole formed” value was 0 nM and the “Concentration of evaluation compound decreased” value worked out at 130 nM.

As for `O=C(CCCCCO)OCOP(=O)([O-])OC[N+]1(CCCCOc2ccc3ccc(=O)[nH]c3c2)CCN(c2cccc3sccc23)CC1` [EX 126], the “Concentration of brexpiprazole formed” value was found to be 0 nM and the “Concentration of evaluation compound decreased” value stood at 160 nM.

As for `O=C(OCOP(=O)([O-])OC[N+]1(CCCCOc2ccc3ccc(=O)[nH]c3c2)CCN(c2cccc3sccc23)CC1)C1CCOCC1` [EX 127], the “Concentration of brexpiprazole formed” value was 0 nM and the “Concentration of evaluation compound decreased” value was 40 nM.

Regarding `CC(C)(C)OC(=O)NC(C)(C)C(=O)OCOP(=O)([O-])OC[N+]1(CCCCOc2ccc3ccc(=O)[nH]c3c2)CCN(c2cccc3sccc23)CC1` [EX 128], the “Concentration of brexpiprazole formed” value turned out to be 0 nM and the “Concentration of evaluation compound decreased” value is -30 nM.

As for `CCOC(=O)OCOP(=O)([O-])OC[N+]1(CCCCOc2ccc3ccc(=O)[nH]c3c2)CCN(c2cccc3sccc23)CC1` [EX 129], the “Concentration of brexpiprazole formed” value amounted to 0 nM and the “Concentration of evaluation compound decreased” value is 90 nM.

For the compound `CC(C)OC(=O)OCOP(=O)([O-])OC[N+]1(CCCCOc2ccc3ccc(=O)[nH]c3c2)CCN(c2cccc3sccc23)CC1` [EX 130], the “Concentration of brexpiprazole formed” value turned out to be 0 nM and the “Concentration of evaluation compound decreased” value is -20 nM.

With `CCOCCOC(=O)OCOP(=O)([O-])OC[N+]1(CCCCOc2ccc3ccc(=O)[nH]c3c2)CCN(c2cccc3sccc23)CC1` [EX 132], the “Concentration of brexpiprazole formed” value turned out to be 0 nM and the “Concentration of evaluation compound decreased” value worked out at 130 nM.

Take `CC(C)OCCOC(=O)OCOP(=O)([O-])OC[N+]1(CCCCOc2ccc3ccc(=O)[nH]c3c2)CCN(c2cccc3sccc23)CC1` [EX 133]: the “Concentration of brexpiprazole formed” value was 0 nM and the “Concentration of evaluation compound decreased” value amounted to 140 nM.

Turning to `CCOCCOCCOC(=O)OCOP(=O)([O-])OC[N+]1(CCCCOc2ccc3ccc(=O)[nH]c3c2)CCN(c2cccc3sccc23)CC1` [EX 134], the “Concentration of brexpiprazole formed” value is 0 nM and the “Concentration of evaluation compound decreased” value was determined as 70 nM.

Consider `CCCCOCCOCCOC(=O)OCOP(=O)([O-])OC[N+]1(CCCCOc2ccc3ccc(=O)[nH]c3c2)CCN(c2cccc3sccc23)CC1` [EX 135], for which the “Concentration of brexpiprazole formed” value was found to be 0 nM and the “Concentration of evaluation compound decreased” value is 70 nM.

Turning to `CCOCCOCCOCCOC(=O)OCOP(=O)([O-])OC[N+]1(CCCCOc2ccc3ccc(=O)[nH]c3c2)CCN(c2cccc3sccc23)CC1` [EX 136], the “Concentration of brexpiprazole formed” value came out at 0 nM and the “Concentration of evaluation compound decreased” value amounted to 0 nM.

Turning to `CC(C)OCCOCCOCCOC(=O)OCOP(=O)([O-])OC[N+]1(CCCCOc2ccc3ccc(=O)[nH]c3c2)CCN(c2cccc3sccc23)CC1` [EX 137], the “Concentration of brexpiprazole formed” value was determined as 0 nM and the “Concentration of evaluation compound decreased” value was found to be 90 nM.

For `CCCCOCCOCCOCCOC(=O)OCOP(=O)([O-])OC[N+]1(CCCCOc2ccc3ccc(=O)[nH]c3c2)CCN(c2cccc3sccc23)CC1` [EX 138], the “Concentration of brexpiprazole formed” value is 0 nM and the “Concentration of evaluation compound decreased” value was 90 nM.

For the compound `COCCCOC(=O)OCOP(=O)([O-])OC[N+]1(CCCCOc2ccc3ccc(=O)[nH]c3c2)CCN(c2cccc3sccc23)CC1` [EX 139], the “Concentration of brexpiprazole formed” value was 0 nM and the “Concentration of evaluation compound decreased” value was 120 nM.

Take `O=C(OCCCOC1CCCCO1)OCOP(=O)([O-])OC[N+]1(CCCCOc2ccc3ccc(=O)[nH]c3c2)CCN(c2cccc3sccc23)CC1` (stereo not shown) [EX 140]: the “Concentration of brexpiprazole formed” value was 0 nM and the “Concentration of evaluation compound decreased” value is -20 nM.

Take `O=C(OCOP(=O)([O-])OC[N+]1(CCCCOc2ccc3ccc(=O)[nH]c3c2)CCN(c2cccc3sccc23)CC1)OC1CCOCC1` [EX 141]: the “Concentration of brexpiprazole formed” value was determined as 0 nM and the “Concentration of evaluation compound decreased” value amounted to 20 nM.

Take `O=C(OCOP(=O)([O-])OC[N+]1(CCCCOc2ccc3ccc(=O)[nH]c3c2)CCN(c2cccc3sccc23)CC1)OCC1CCOCC1` [EX 142]: the “Concentration of brexpiprazole formed” value worked out at 0 nM and the “Concentration of evaluation compound decreased” value was -70 nM.

As for `CCOC(=O)CCOC(=O)OCOP(=O)([O-])OC[N+]1(CCCCOc2ccc3ccc(=O)[nH]c3c2)CCN(c2cccc3sccc23)CC1` [EX 143], the “Concentration of brexpiprazole formed” value came out at 0 nM and the “Concentration of evaluation compound decreased” value stood at 50 nM.
